Laboratory results: US20240270821A1, “GIP/GLP1/GCG TRI-RECEPTOR AGONISTS AND USES THEREOF” (priority 2023, published 2024)
Read-outs that look alike come from different tables or passages of the source. Starred links: 1 amine or outer side, 2 acyl side, 3 side chain; linkers in the order of their positions; H or OH if unused. Non-standard residues stand in square brackets, D forms with d. Groups on a side chain read outwards from the residue. No end group written: not given here. *: point of attachment. C20 diacid = O=C(O)CCCCCCCCCCCCCCCCCCC(=O)*; C18 diacid = O=C(O)CCCCCCCCCCCCCCCCC(=O)*; αMePhe(2-F) = C[C@](N)(Cc1ccccc1F)C(=O)O; γGlu = O=C(O)[C@H](CCC(=O)[*:2])N[*:1]; αMe4Pal = C[C@](N)(Cc1ccncc1)C(=O)O; αMeY = C[C@](N)(Cc1ccc(O)cc1)C(=O)O; 4Pal = N[C@@H](Cc1ccncc1)C(=O)O; αMeL = CC(C)C[C@](C)(N)C(=O)O; αMeS = C[C@](N)(CO)C(=O)O; Orn = NCCC[C@H](N)C(=O)O; Dap = NC[C@H](N)C(=O)O; AEEA = NCCOCCOCC(=O)O; Aib = CC(C)(N)C(=O)O

Assays:
Type in all cases: cell-based
hGcgR = hGcgR (Homo sapiens, UniProt P47871); test: Functional cAMP activation in the presence of 0.1% casein (no HSA); details: read-out: Relative cAMP EC50, hGcgR;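 also: intracellular cAMP rise after 30 min at 37 °C, read by HTRF against a cAMP standard curve, scaled from buffer only (0%) to maximal control ligand response (100%)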
Sequence of hGcgR (P47871 26-477): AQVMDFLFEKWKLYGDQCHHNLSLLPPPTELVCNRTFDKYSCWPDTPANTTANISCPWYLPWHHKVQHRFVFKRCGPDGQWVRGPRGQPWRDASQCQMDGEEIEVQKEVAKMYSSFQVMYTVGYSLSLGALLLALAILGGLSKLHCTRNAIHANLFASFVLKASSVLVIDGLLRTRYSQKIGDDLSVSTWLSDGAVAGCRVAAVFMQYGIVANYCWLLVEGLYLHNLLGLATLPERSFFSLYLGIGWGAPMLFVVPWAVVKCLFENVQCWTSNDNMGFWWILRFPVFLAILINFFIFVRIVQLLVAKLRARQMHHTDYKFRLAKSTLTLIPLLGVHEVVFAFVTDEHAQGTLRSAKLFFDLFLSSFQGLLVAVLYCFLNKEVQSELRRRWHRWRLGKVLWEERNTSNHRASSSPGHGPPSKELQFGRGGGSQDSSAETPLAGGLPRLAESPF

hGIPR [1] = biological target: T1, hGIPR (Homo sapiens, UniProt P48546); test: Functional cAMP activity in the presence of 1% HSA; details: read-out: cAMP Rel EC50, hGIPR
T1 sequence (P48546 22-466): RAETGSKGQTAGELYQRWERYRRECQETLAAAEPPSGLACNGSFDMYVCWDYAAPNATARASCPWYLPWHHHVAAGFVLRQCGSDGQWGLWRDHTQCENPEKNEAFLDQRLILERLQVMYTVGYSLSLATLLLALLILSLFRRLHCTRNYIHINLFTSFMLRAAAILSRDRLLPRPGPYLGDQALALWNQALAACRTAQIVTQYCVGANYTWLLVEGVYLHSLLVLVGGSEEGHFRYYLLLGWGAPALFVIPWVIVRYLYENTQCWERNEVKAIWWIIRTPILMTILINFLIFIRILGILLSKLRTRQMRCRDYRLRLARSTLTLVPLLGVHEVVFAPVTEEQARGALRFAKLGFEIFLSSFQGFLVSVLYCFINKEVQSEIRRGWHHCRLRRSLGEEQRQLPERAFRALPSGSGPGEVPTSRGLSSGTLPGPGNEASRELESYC

hGLP-1R [2] = biological target: T2, hGLP-1R (Homo sapiens, UniProt P43220); test: Functional cAMP activation in the presence of 0.1% casein (no HSA); details: read-out: Relative cAMP EC50, hGLP-1R;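 also: intracellular cAMP rise after 30 min at 37 °C read by HTRF, normalized between buffer only (0%) and maximal control ligand (100%), four-parameter variable-slope fit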
T2 sequence (P43220 24-463): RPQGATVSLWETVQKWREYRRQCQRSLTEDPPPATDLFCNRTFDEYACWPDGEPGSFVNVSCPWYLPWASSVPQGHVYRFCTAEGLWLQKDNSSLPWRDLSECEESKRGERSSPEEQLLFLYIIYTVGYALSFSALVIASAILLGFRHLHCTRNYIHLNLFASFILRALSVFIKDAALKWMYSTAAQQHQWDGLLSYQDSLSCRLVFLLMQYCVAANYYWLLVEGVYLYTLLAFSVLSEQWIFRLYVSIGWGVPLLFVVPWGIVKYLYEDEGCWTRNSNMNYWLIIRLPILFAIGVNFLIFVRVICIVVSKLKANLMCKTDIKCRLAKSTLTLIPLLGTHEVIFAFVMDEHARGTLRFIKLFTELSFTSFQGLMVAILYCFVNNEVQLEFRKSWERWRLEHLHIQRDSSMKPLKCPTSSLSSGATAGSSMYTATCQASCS

hGIPR [3] = biological target: T1, hGIPR; test: as above; details: read-out: Relative cAMP EC50, hGIPR
human GcgR = human GcgR (Homo sapiens, UniProt P47871); test: Functional cAMP activity in the presence of 1% HSA; details: read-out: cAMP Rel EC50, hGcgR
Sequence of human GcgR (P47871 26-477): as the sequence (P47871 26-477) above

hGLP-1R [4] = biological target: T2, hGLP-1R; test: Functional cAMP activity in the presence of 1% HSA; details: read-out: cAMP Rel EC50, hGLP-1R
[5] = in the presence of 0.1% casein (no HSA), geometric mean of relative EC50
[6] = HEK-293 clonal cell line, 1% HSA, geometric mean of relative EC50
[7] = in the presence of 0.1% casein (no HSA), geometric mean
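For Relative cAMP EC50, hGIPR in this document: intracellular cAMP rise after 30 min at 37 °C read by HTRF against a standard curve, scaled between buffer alone (0%) and top control ligand concentration (100%), four-parameter fit.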

Compound | EC50 (hGcgR; [5]) [nM] | EC50 (hGIPR [1]; [6]) [nM] | EC50 (hGLP-1R [2]; [5]) [nM] | EC50 (hGIPR [3]; [5]) [nM] | EC50 (human GcgR; [6]) [nM] | EC50 (hGLP-1R [4]; [6]) [nM] | EC50 (hGcgR; [7]) [nM] | EC50 (hGIPR [1]) [nM] | EC50 (hGLP-1R [2]; [7]) [nM] | EC50 (hGIPR [3]; [7]) [nM] | EC50 (human GcgR) [nM] | EC50 (hGLP-1R [4]) [nM] | EC50 (hGcgR) [nM] | EC50 (hGLP-1R [2]) [nM] | EC50 (hGIPR [3]) [nM]
CC[C@H](C)[C@H](NC(=O)[C@H](Cc1ccccc1)NC(=O)[C@H](CCCN)NC(=O)C(C)(C)NC(=O)[C@H](CCC(N)=O)NC(=O)[C@H](C)NC(=O)[C@H](CCCCNC(=O)CC[C@H](NC(=O)CNC(=O)CCCCCCCCCCCCCCCCC(=O)O)C(=O)O)NC(=O)[C@H](CCCN)NC(=O)[C@H](CC(=O)O)NC(=O)[C@H](CC(C)C)NC(=O)[C@](C)(CC(C)C)NC(=O)[C@@H](NC(=O)[C@](C)(CO)NC(=O)[C@H](Cc1ccncc1)NC(=O)[C@H](CC(=O)O)NC(=O)[C@H](CO)NC(=O)[C@@H](NC(=O)[C@](C)(Cc1ccccc1F)NC(=O)[C@@H](NC(=O)CNC(=O)[C@H](CCC(N)=O)NC(=O)C(C)(C)NC(=O)[C@@H](N)Cc1ccc(O)cc1)[C@@H](C)O)[C@@H](C)O)[C@@H](C)CC)C(=O)N[C@H](CCC(=O)O)C(=O)N[C@@](C)(Cc1ccc(O)cc1)C(=O)N[C@@H](CC(C)C)C(=O)N[C@@H](CCC(N)=O)C(=O)N[C@@H](CCC(=O)O)C(=O)NCC(=O)NCC(=O)N1CCC[C@H]1C(=O)N[C@@H](CO)C(=O)N[C@@H](CO)C(=O)NCC(=O)N[C@@H](CCC(=O)O)C(=O)N1CCC[C@H]1C(=O)N1CCC[C@H]1C(=O)N1CCC[C@H]1C(=O)N[C@@H](CCC(=O)O)C(=O)NCC(=O)N[C@H](C(=O)N[C@@H](CCC(=O)O)C(=O)N[C@@H](CCC(=O)O)C(N)=O)[C@@H](C)O [Example 658] | 1.05 | 12 | 0.34 | 0.0379 | 376 | 106 | – | – | – | – | – | – | – | – | –
Y[Aib]QGTFTSDYSI[αMeL]LDKQAAK([AEEA-AEEA-γGlu-C20 diacid])QFVEWLLAGGPSSGEPPPGEG-NH2 [Example 320] | – | – | – | – | – | – | 6.87 | 55.3 | 2.58 | 0.274 | 1170 | 328 | – | – | –
H-Y[Aib]QGTFTSD[4Pal]SQ[αMeL]LDKK([dE-γGlu-C18 diacid])AQ[αMe4Pal]AFIEYLIE[Aib]GPSSGAPPPSGS-NH2 [Example 920] | – | – | – | – | – | – | 4.61 | 9.05 | 2.28 | 0.0905 | 1090 | 322 | – | – | –
H-Y[Aib]QGTFTSDYSK[αMeL]LDKK([AEEA-γGlu-C20 diacid])AQQAFIEYLIAGGPSSGAPPPSSE-NH2 [Example 322] | – | – | – | – | – | – | 5.41 | 89.3 | 0.394 | 0.264 | 2620 | 135 | – | – | –
H-Y[Aib]QGTFTSDFS[Dap][αMeL]LDKK([AEEA-γGlu-C18 diacid])AQ[Aib]AFIEYLIE[Aib]GPSSGAPPPSGS-NH2 [Example 800] | – | – | – | – | – | – | 21 | 40.2 | 0.486 | 0.283 | 2500 | 164 | – | – | –
H-Y[Aib]QGT[αMePhe(2-F)]TSD[4Pal][αMeS]I[αMeL]LD[Orn]K([γGlu-γGlu-C18 diacid])AQ[αMe4Pal]EFI[dE][αMeY]LVEGGPSSGEPPPSGTGE-NH2 [Example 738] | – | – | – | – | – | – | – | 0.64 | – | – | 162 | 28.2 | 1.87 | 0.368 | 0.00991
H-Y[Aib]QGT[αMePhe(2-F)]TSD[4Pal][αMeS]I[αMeL]LD[Orn]K([γGlu-γGlu-C18 diacid])AQ[Aib]NFI[dE][αMeY]LIEGGPSSGEPEPEEG-NH2 [Example 474] | – | – | – | – | – | – | – | 0.743 | – | – | 166 | 10.6 | 3.88 | 0.236 | 0.0125
Y[Aib]QGTFTSDFS[Orn][αMeL]LDKK([AEEA-γGlu-γGlu-C18 diacid])AQ[Aib]AFIEYLLAGGPSSGEPPPSGS-NH2 [Example 153] | – | – | – | – | – | – | 14.7 | 16.8 | 7.09 | 0.218 | 1210 | 488 | – | – | –
H-Y[Aib]QGTFTSD[4Pal]SQ[αMeL]LDKK([γGlu-γGlu-C18 diacid])AQ[αMe4Pal]AFIEYLIE[Aib]GPSSGAPPPSGSGE-NH2 [Example 891] | – | – | – | – | – | – | 3.14 | 16 | 3.25 | 0.155 | 581 | 330 | – | – | –
